Target: T1, CIB1 (Homo sapiens, UniProt Q99828)
Test: not given

T1 sequence (Q99828 whole entry): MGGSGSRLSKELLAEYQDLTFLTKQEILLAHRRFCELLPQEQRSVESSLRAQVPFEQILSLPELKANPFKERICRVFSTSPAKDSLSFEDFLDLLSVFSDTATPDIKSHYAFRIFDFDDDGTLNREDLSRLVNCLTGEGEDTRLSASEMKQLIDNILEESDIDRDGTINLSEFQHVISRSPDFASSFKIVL

SMILES | Hill slope
COc1cccc(OCCCn2cc(C=C3C(=O)NC(=O)N(Cc4ccco4)C3=O)c3ccccc32)c1 [UNC10245380A, COc1cccc(OCCCn2cc(C=C3C(=O)NC(=O)N(Cc4ccco4)C3=O)c3ccccc23)c1] | 1.5–2.5

Target: T1, CIB1
Test: biochemical
Text: Binding of the 56 purchased compounds was experimentally assessed in a time-resolved fluorescence energy transfer (TR-FRET) assay (see Fig. 3A and Supplementary data 1). Briefly, it serves as a displacement assay using an AlexaFluor-labeled cyclic CIB1-binding peptide and a Europium (Eu)-labeled Streptavidin donor for attachment to the AviTag biotinylated CIB1 protein (described previously in Puhl et al. and Haberman et al.[47],[62]).
A CIB1 TR-FRET assay uses an AlexaFluor-labeled cyclic CIB1-binding peptide and a Europium (Eu)-labeled Streptavidin donor for attachment to the AviTag biotinylated CIB1 protein. […] Compounds were dispensed into 384-well plates using a Mosquito HTS nanoliter instrument (TTP LABTech) as 3-fold serial dilutions (100x in DMSO, 0.1 μL) for final concentrations ranging from 100 μM to 0.5 nM. Biotinylated CIB1 was diluted to a final concentration of 3 nM in assay buffer (20 mM) TRIS pH 7.5, 150 mM NaCl, 1 mM CaCl, 1 mM CHAPS, and 1 mM DTT (added fresh each time), and 5 μL of diluted protein was added to the wells of the assay plate using a Multidrop Combi Reagent Dispenser (Thermo Scientific) and incubated at room temperature for 20 min. 5 μL detection solution containing 2 nM Lance Eu-Streptavidin (Perkin Elmer) and 30 nM Alexa647-CIB1-phage peptide diluted in assay buffer was added to the wells and incubated 30–60 min at room temperature protected from light. TR-FRET signals were measured using an Envision Multilabel Plate Reader (PerkinElmer; Eu excitation 320 nm, Eu emission 615 nm, Alexa dye emission 665 nm). […] Inhibition curves were analyzed using a four-parameter non-linear curve fit using ScreenAble software, and the mean and standard deviation were calculated. Publication curves were averaged and fit with a four-parameter non-liner curve fit using GraphPad Prism.

SMILES | IC50 [µM]
O=C(NCc1ccc2c(c1)OCO2)C1CCN(S(=O)(=O)c2cccc3nsnc23)CC1 [UNC10245381A, O=C(NCc1ccc2OCOc2c1)C1CCN(CC1)S(=O)(=O)c1cccc2nsnc12] | 84
CC(c1nnc(SCC(=O)Nc2ccc(Oc3ccccc3)cc2)n1C)N1C(=O)COc2ccccc21 (centres unmarked) [UNC10245386A, CC(N1C(=O)COc2ccccc12)c1nnc(SCC(=O)Nc2ccc(Oc3ccccc3)cc2)n1C] | 33
CC(c1cc(-c2ccccc2)[nH]n1)N(C)C(=O)C1CCN(c2cccc3c2C(=O)N(Cc2cccs2)C3=O)CC1 (centres unmarked) [UNC10245397A, CC(N(C)C(=O)C1CCN(CC1)c1cccc2C(=O)N(Cc3cccs3)C(=O)c12)c1cc([nH]n1)-c1ccccc1] | 24
O=C(Nc1cccc2ncccc12)c1cccc(NS(=O)(=O)c2ccc3c(c2)OCCCO3)c1 [UNC10245399A, O=C(Nc1cccc2ncccc12)c1cccc(NS(=O)(=O)c2ccc3OCCCOc3c2)c1] | 59
Cc1ccc(C)c(S(=O)(=O)N2CCN(C(=O)CSc3nnc(-c4ccc5c(c4)OCO5)n3-c3ccccc3)CC2)c1 [UNC10245404A, Cc1ccc(C)c(c1)S(=O)(=O)N1CCN(CC1)C(=O)CSc1nnc(-c2ccc3OCOc3c2)n1-c1ccccc1] | 14
Cc1noc(C)c1COc1cccc(C(=O)Nc2cccc(S(=O)(=O)Nc3cccc(C(F)(F)F)c3)c2)c1 [UNC10245406A, Cc1noc(C)c1COc1cccc(c1)C(=O)Nc1cccc(c1)S(=O)(=O)Nc1cccc(c1)C(F)(F)F] | 39
COc1cccc(C(=O)N(CC(=O)Nc2ccc(N3CCN(C(=O)c4ccc(C)cc4)CC3)cc2)Cc2ccc(F)cc2)c1 [UNC10245410A, COc1cccc(c1)C(=O)N(CC(=O)Nc1ccc(cc1)N1CCN(CC1)C(=O)c1ccc(C)cc1)Cc1ccc(F)cc1] | 11
CN(Cc1ccco1)C(=O)c1ccc(COc2ccc3c(c2)C(c2cccc(F)c2)N(C(=O)C2CC2)CC3)o1 (centres unmarked) [UNC10245413A, CN(Cc1ccco1)C(=O)c1ccc(COc2ccc3CCN(C(c4cccc(F)c4)c3c2)C(=O)C2CC2)o1] | 48
CCOC(=O)c1cc(-c2ccc(N3CCN(C(=O)COc4ccccc4)CC3)cc2)n(-c2ccccc2OC)n1 [UNC10245416A, CCOC(=O)c1cc(-c2ccc(cc2)N2CCN(CC2)C(=O)COc2ccccc2)n(n1)-c1ccccc1OC] | 12
COc1cccc(CNC(=O)C2CCN(C(=O)[C@@H](Cc3ccccc3)NC(=O)COc3ccccc3)CC2)c1 [UNC10245418A, COc1cccc(CNC(=O)C2CCN(CC2)C(=O)[C@@H](Cc2ccccc2)NC(=O)COc2ccccc2)c1] | 93
COc1ccccc1N1CCN(C(=O)CCCc2nnc3n(CC(C)C)c(=O)c4sccc4n23)CC1 [UNC10245420A, COc1ccccc1N1CCN(CC1)C(=O)CCCc1nnc2n(CC(C)C)c(=O)c3sccc3n12] | 87
CCOc1ccccc1NC(=O)Nc1cccc(OCc2cc(=O)n3ccccc3n2)c1 [UNC10245432A, CCOc1ccccc1NC(=O)Nc1cccc(OCc2cc(=O)n3ccccc3n2)c1] | 43
Cc1cc(NC(=O)CSc2nc3ccccc3c(=O)n2CC2CCC(C(=O)NCc3ccccc3Cl)CC2)n[nH]1 (centres unmarked) [UNC10245433A, Cc1cc(NC(=O)CSc2nc3ccccc3c(=O)n2CC2CCC(CC2)C(=O)NCc2ccccc2Cl)n[nH]1] | 8.8
CC1Cc2ccccc2N1C(=O)CC1CCN(S(=O)(=O)c2ccc3c(c2)oc(=O)n3C)CC1 (centres unmarked) [UNC10245457A, CC1Cc2ccccc2N1C(=O)CC1CCN(CC1)S(=O)(=O)c1ccc2n(C)c(=O)oc2c1] | 44
COc1ccccc1OCCC1CCN(C(=O)C2CCN(S(=O)(=O)c3cccc4nonc34)CC2)C1 (centres unmarked) [UNC10245474A, COc1ccccc1OCCC1CCN(C1)C(=O)C1CCN(CC1)S(=O)(=O)c1cccc2nonc12] | 75
COc1ccccc1OCCCn1cc(C=C2C(=O)NC(=O)N(Cc3ccco3)C2=O)c2ccccc21 [UNC10245533, COc1ccccc1OCCCn1cc(C=C2C(=O)NC(=O)N(Cc3ccco3)C2=O)c2ccccc12] | 9.8
O=C1NC(=O)N(Cc2ccco2)C(=O)C1=Cc1cn(CCCOc2ccccc2)c2ccccc12 [UNC10245534, O=C1NC(=O)C(=Cc2cn(CCCOc3ccccc3)c3ccccc23)C(=O)N1Cc1ccco1] | 24
Cc1cccc(OCCCn2cc(C=C3C(=O)NC(=O)N(Cc4ccco4)C3=O)c3ccccc32)c1 [UNC10245535, Cc1cccc(OCCCn2cc(C=C3C(=O)NC(=O)N(Cc4ccco4)C3=O)c3ccccc23)c1] | 6.1
O=C1NC(=O)N(Cc2ccco2)C(=O)C1=Cc1cn(CCCOc2ccccc2Cl)c2ccccc12 [UNC10245536, Clc1ccccc1OCCCn1cc(C=C2C(=O)NC(=O)N(Cc3ccco3)C2=O)c2ccccc12] | 12
COc1ccccc1OCCn1cc(C=C2C(=O)NC(=O)N(Cc3ccco3)C2=O)c2ccccc21 [UNC10245537, COc1ccccc1OCCn1cc(C=C2C(=O)NC(=O)N(Cc3ccco3)C2=O)c2ccccc12] | 22
COc1ccc(OCCn2cc(C=C3C(=O)NC(=O)N(Cc4ccco4)C3=O)c3ccccc32)cc1 [UNC10245538, COc1ccc(OCCn2cc(C=C3C(=O)NC(=O)N(Cc4ccco4)C3=O)c3ccccc23)cc1] | 19
COc1ccc(OCCCn2cc(C=C3C(=O)NC(=O)N(Cc4ccco4)C3=O)c3ccccc32)cc1 [UNC10245539, COc1ccc(OCCCn2cc(C=C3C(=O)NC(=O)N(Cc4ccco4)C3=O)c3ccccc23)cc1] | 18
Cc1cc(OCCCn2cc(C=C3C(=O)NC(=O)N(Cc4ccco4)C3=O)c3ccccc32)cc(C)c1Cl [UNC10245540, Cc1cc(OCCCn2cc(C=C3C(=O)NC(=O)N(Cc4ccco4)C3=O)c3ccccc23)cc(C)c1Cl] | 23
Cc1cc(C)cc(OCCCn2cc(C=C3C(=O)NC(=O)N(Cc4ccco4)C3=O)c3ccccc32)c1 [UNC10245541, Cc1cc(C)cc(OCCCn2cc(C=C3C(=O)NC(=O)N(Cc4ccco4)C3=O)c3ccccc23)c1] | 4.3
COc1cccc(OCCn2cc(C=C3C(=O)NC(=O)N(Cc4ccco4)C3=O)c3ccccc32)c1 [UNC10245542, COc1cccc(OCCn2cc(C=C3C(=O)NC(=O)N(Cc4ccco4)C3=O)c3ccccc23)c1] | 50
